# Laboratory results published in paper PMC11945486, “TAS1R2/TAS1R3 Single-Nucleotide Polymorphisms Affect Sweet Taste Receptor Activation by Sweeteners: The SWEET Project” (Nutrients, 2025).
# Read-outs that look alike come from different tables or passages of the source. No end group written: not given here.
# T1: human TAS1R2-WT/TAS1R3-R813K (Homo sapiens, UniProt Q7RTX0+Q8TE23, R813K)
# T1 construct: expressed in transfected cells; host or cells: HEK293T stably expressing Gα16gust44
# T1 sequence (Q8TE23 20-839): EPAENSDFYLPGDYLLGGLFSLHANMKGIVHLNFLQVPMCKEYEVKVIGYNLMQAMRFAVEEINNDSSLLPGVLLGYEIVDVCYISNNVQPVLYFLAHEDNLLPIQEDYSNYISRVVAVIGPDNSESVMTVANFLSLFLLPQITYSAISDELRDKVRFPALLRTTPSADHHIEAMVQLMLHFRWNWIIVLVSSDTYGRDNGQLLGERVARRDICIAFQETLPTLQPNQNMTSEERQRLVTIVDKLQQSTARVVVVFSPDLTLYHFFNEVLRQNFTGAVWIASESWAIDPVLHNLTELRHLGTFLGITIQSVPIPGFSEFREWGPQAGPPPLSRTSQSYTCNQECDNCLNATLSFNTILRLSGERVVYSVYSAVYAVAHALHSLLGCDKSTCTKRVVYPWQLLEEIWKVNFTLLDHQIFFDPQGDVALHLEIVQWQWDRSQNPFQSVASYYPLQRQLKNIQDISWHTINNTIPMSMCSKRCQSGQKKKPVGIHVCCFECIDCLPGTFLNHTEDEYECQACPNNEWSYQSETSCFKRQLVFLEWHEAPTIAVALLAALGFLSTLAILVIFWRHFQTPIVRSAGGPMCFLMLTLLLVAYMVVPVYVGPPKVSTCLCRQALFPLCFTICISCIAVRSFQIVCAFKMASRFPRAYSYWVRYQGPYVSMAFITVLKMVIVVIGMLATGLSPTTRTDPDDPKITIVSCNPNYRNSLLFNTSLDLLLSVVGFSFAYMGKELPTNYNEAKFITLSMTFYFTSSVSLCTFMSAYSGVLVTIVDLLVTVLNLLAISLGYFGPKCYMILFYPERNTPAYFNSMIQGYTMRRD
# T1 sequence (Q7RTX0 21-852 R813K): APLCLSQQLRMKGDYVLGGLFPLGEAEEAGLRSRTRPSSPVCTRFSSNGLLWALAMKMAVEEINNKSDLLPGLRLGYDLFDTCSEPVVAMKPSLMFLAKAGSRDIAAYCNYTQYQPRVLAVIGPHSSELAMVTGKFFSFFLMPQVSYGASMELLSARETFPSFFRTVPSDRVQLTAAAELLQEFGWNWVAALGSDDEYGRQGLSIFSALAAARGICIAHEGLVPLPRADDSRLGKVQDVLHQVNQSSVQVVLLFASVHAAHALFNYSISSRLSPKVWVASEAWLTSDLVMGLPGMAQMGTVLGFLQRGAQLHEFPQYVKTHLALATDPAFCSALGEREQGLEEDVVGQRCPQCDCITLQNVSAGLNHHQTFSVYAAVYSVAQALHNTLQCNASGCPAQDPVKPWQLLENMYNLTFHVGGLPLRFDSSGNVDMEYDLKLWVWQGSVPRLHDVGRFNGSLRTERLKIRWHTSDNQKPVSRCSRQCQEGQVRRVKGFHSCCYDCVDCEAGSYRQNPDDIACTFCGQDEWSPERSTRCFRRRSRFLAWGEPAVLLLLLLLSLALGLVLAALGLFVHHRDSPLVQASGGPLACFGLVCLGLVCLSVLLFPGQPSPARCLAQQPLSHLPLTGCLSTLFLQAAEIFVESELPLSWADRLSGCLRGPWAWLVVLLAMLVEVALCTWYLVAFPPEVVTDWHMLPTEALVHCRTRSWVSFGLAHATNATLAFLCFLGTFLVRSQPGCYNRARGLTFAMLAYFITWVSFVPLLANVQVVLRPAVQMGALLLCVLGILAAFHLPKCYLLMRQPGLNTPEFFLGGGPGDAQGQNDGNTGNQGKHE
# Target: T1, human TAS1R2-WT/TAS1R3-R813K
# Assay: Calcium mobilisation assay, TAS1R2-WT with TAS1R3 variant R813K
# Assay type: cell-based
# Details: for Max ΔF/F0: maximal signal amplitude
# Description: The coding sequences for TAS1R2 and TAS1R3 were commercially synthesised, and the human codon was optimised for expression in human cells. The coding sequences of human TAS1R2 and TAS1R3 were subcloned and inserted into the mammalian expression vectors pcDNA6/myc-HisA and pcDNA4/myc-HisA (Invitrogen; Thermo Fisher Scientific; Illkirch, France) between the EcoRI and NotI restriction sites, generating the plasmids pcDNA6-TAS1R2 and pcDNA4-TAS1R3, respectively. To increase protein expression in mammalian cells, an upstream start codon was used, which was a sequence called MAX, corresponding to the QBI SP163 element also described in pcDNA4-HisMax (Invitrogen; Thermo Fisher Scientific; Illkirch, France). To measure the expression level of the receptor by immunohistochemistry, we used the FLAG sequence ([…]) in the C-terminal position, which encodes the FLAG tag epitope. SNP variants of TAS1R2 and TAS1R3 were constructed based on […], respectively, using site-directed mutagenesis (Genewiz; Leipzig, Germany).
# The HEK293T cells were kindly provided by Jay P. Slack (Givaudan Flavors Corporation; Cincinnati, OH, USA). HEK293T cells stably transfected with Gα16gust44 [43, 67] were seeded in poly-D-lysine-coated clear-bottom black 96-well plates (0.35 × 10^5 cells/well) in high-glucose DMEM supplemented with 2 mM GlutaMAX, 10% dialysed foetal bovine serum with penicillin/streptomycin and G418 (400 μg/mL) at 37 °C and 6.3% CO2 in a humidified atmosphere as previously reported. […] As a negative control, HEK293T cells were mock-transfected with the empty expression vector. After a further 24 h of incubation, the HEK293T cells were washed with C1 buffer (130 mM NaCl, 5 mM KCl, 10 mM HEPES pH 7.4 and 2 mM CaCl2). The 96-well plates containing the cells were then stimulated with sweet-tasting compounds. […] Different concentration ranges were tested depending on the sweet compound injected. The Ca^2+ changes were expressed as fractional changes in fluorescent light intensity: ΔF/F = (F − F0)/F0, where F was the fluorescent light intensity at each point, and F0 was the value of emitted fluorescent light prior to stimulus application. To calculate dose–response relationships, the changes in fluorescence upon stimulus application were averaged, mock-subtracted and baseline-corrected. The dose–response data obtained were adjusted using a 4-parameter logistic equation. The half-maximal effective concentrations (EC50 values) and maximal signal amplitudes were calculated using SigmaPlot software (version 15.0) (Systat Software; San Jose, CA, USA).
# For in vitro calcium mobilisation assay performed on hTAS1R2-SNPs, hTAS1R3-SNPs and mTAS1R3-I60T, 6 to 7 concentrations were tested for each sweet compound, plus buffer alone. All concentration–receptor combinations were measured in duplicate, and each experiment was repeated at least 4 times (8 wells/concentration). Results were expressed for each concentration as ΔF/F mean ± SEM and represented as dose–response curves.
Molecule,R1 = Variant EC50/WT EC50,Max ΔF/F0,EC50 (read-out: EC50),EC50 (brazzein)
"CC1=CC(=O)NS(=O)(=O)O1 [Acesulfame K, acesulfame K]",0.7,0.40 ± 0.01,433 ± 34 µM,
"O=S(=O)(O)NC1CCCCC1 [Cyclamate, cyclamate]",,,1330 ± 22 µM,
"C[C@H](CC[C@@H](O[C@@H]1O[C@H](CO[C@@H]2O[C@H](CO)[C@@H](O)[C@H](O)[C@H]2O)[C@@H](O)[C@H](O)[C@H]1O[C@@H]1O[C@H](CO)[C@@H](O)[C@H](O)[C@H]1O)C(C)(C)O)[C@H]1CC[C@@]2(C)[C@@H]3CC=C4[C@@H](CC[C@H](O[C@@H]5O[C@H](CO[C@@H]6O[C@H](CO)[C@@H](O)[C@H](O)[C@H]6O)[C@@H](O)[C@H](O)[C@H]5O)C4(C)C)[C@]3(C)[C@H](O)C[C@]12C [Mogroside V, mogroside V]",0.7,1.14 ± 0.02,22 ± 1.3 µM,
"COc1ccc(CCC(=O)c2c(O)cc(O[C@@H]3O[C@H](CO)[C@@H](O)[C@H](O)[C@H]3O[C@@H]3O[C@@H](C)[C@H](O)[C@@H](O)[C@H]3O)cc2O)cc1O [NHDC, neohesperidin dihydrochalcone]",0.7,1.00 ± 0.02,34.2 ± 15.2 µM,
COC(=O)[C@H](Cc1ccccc1)NC(=O)[C@H](CC(=O)O)NCCC(C)(C)C [Neotame],0.8,0.79 ± 0.02,0.98 ± 0.07 µM,

# More lines, now with the values ahead:
R1 = Variant EC50/WT EC50,Max ΔF/F0,EC50 (read-out: EC50),EC50 (brazzein),Molecule
0.8,1.28 ± 0.16,10.4 ± 3.6 µM,,"C=C(C)[C@@H]1CC=C(/C=N/O)CC1 [Perillartine, perillartine]"
0.7,1.18 ± 0.06,27.4 ± 3.4 µM,,"C=C1C[C@@]23CC[C@H]4[C@@](C)(CCC[C@@]4(C)C(=O)O[C@@H]4O[C@H](CO)[C@@H](O)[C@H](O[C@@H]5O[C@H](CO)[C@@H](O)[C@H](O)[C@H]5O)[C@H]4O[C@@H]4O[C@H](CO)[C@@H](O)[C@H](O)[C@H]4O)[C@@H]2CC[C@]1(O[C@@H]1O[C@H](CO)[C@@H](O)[C@H](O[C@@H]2O[C@H](CO)[C@@H](O)[C@H](O)[C@H]2O)[C@H]1O[C@@H]1O[C@H](CO)[C@@H](O)[C@H](O)[C@H]1O)C3 [Rebaudioside M, rebaudioside M]"
1.1,0.90 ± 0.03,120 ± 9 µM,,OC[C@H]1O[C@H](O[C@]2(CCl)O[C@H](CCl)[C@@H](O)[C@@H]2O)[C@H](O)[C@@H](O)[C@H]1Cl [Sucralose]
0.5,1.00 ± 0.05,,58.0 ± 10.5 µg/mL,"brazzein (QDKCKKVYENYPVSKCQLANQCNYDCKLDKHARSGECFYDEKRNLQCICDYCEY; ends and bridges not checked; cysteine pairing not given here; UniProt P56552 1-54, looked up) [sweet-tasting protein obtained by recombinant production using the yeast Pichia pastoris]"
0.6,0.74 ± 0.04,,,thaumatin
,,6.5 ± 0.9 µM,,"thaumatin (protein, Eight disulfides, sweet-tasting plant protein, E957) ATFEIVNRCSYTVWAAASKGDAALDAGGRQLNSGESWTINVEPGTKGGKIWARTDCYFDDSGSGICKTGDCGGLLRCKRFGRPPTTLAEFSLNQYGKDYIDISNIKGFNVPMDFSPTTRGCRGVRCAADIVGQCPAKLKAPGGGCNDACTVFQTSEYCCTTGKCGPTEYSRFFKRLCPDAFSYVLDKPTTVTCPGSSNYRVTFCPTA"
